Literature values in US20130259835A1, “BIFIDOBACTERIUM ADOLESCENTIS SPM0212 HAVING ANTIVIRAL ACTIVITY FOR HEPATITIS B VIRUS, AND PHARMACEUTICAL COMPOSITION FOR PREVENTING AND TREATING HEPATITIS B COMPRISING THEREOF” (SAHMYOOK UNIVERSITY INDUSTRY-ACADEMIC COOPERATION, priority 2011, published 2013).

Test system: hepatitis B virus
Conditions: administered 3 times a week for at least 3 months; average; cited from earlier work

## interferon-α
  patients with treatment effect of inhibiting the virus replication: 20%
